In a compilation of properties of binary mixtures (doi:10.1007/s10953-012-9937-x):

Assay: xn = mol fraction of the nth substance listed
Details: 298.15 K, 101 kPa

For `CCCCCCCCn1cc[n+](C)c1.F[B-](F)(F)F` + CCC(C)=O, which viscosity (x2 = 0) is on record?
Its viscosity is 336 mPa·s.

What about the viscosity (x2 = 0.209) of the same molecule?
Its viscosity is 100.3 mPa·s.

What about the viscosity (x2 = 0.2713) of the same molecule?
The viscosity was 69.9 mPa·s.

And the viscosity (x2 = 0.3991)?
Its viscosity is 34.24 mPa·s.

What about the viscosity (x2 = 0.5032) of the same molecule?
Its viscosity is 18.4 mPa·s.

And the viscosity (x2 = 0.551)?
The viscosity was 13.82 mPa·s.

And the viscosity (x2 = 0.6006)?
Its viscosity is 10.26 mPa·s.

And the viscosity (x2 = 0.6442)?
Its viscosity is 7.54 mPa·s.

And the viscosity (x2 = 0.9518)?
The viscosity was 0.63 mPa·s.

Which results are given for `CCCCCCCCn1cc[n+](C)c1.F[B-](F)(F)F` + COC(C)=O?
viscosity (x2 = 0): 336 mPa·s; viscosity (x2 = 0.1173): 188 mPa·s; viscosity (x2 = 0.2964): 70 mPa·s; viscosity (x2 = 0.4063): 34.24 mPa·s; viscosity (x2 = 0.4511): 24.78 mPa·s; viscosity (x2 = 0.4964): 18.4 mPa·s; viscosity (x2 = 0.6056): 10.26 mPa·s; viscosity (x2 = 0.6519): 7.54 mPa·s; viscosity (x2 = 0.7027): 5.04 mPa·s; viscosity (x2 = 0.8989): 1.03 mPa·s

With `CCCOC(C)=O` + CCCCCCCCn1cc[n+](C)c1.F[B-](F)(F)F as the molecule, how does the viscosity (x1 = 1) read?
The viscosity was 0.56 mPa·s.

Which results are given for `CCCCCCCCn1cc[n+](C)c1.F[B-](F)(F)F` + CCOC(C)=O?
viscosity (x2 = 0): 336 mPa·s; viscosity (x2 = 0.1092): 181 mPa·s; viscosity (x2 = 0.2953): 69.8 mPa·s; viscosity (x2 = 0.4999): 23.13 mPa·s; viscosity (x2 = 0.5507): 17.01 mPa·s; viscosity (x2 = 0.7012): 6.56 mPa·s; viscosity (x2 = 0.9005): 1.284 mPa·s

For `CCC(C)=O` + CCCCCCCCn1cc[n+](C)c1.F[B-](F)(F)F, which viscosity (x1 = 1) is on record?
Its viscosity is 0.39 mPa·s.

For `CCOC(C)=O` + CCCCCCCCn1cc[n+](C)c1.F[B-](F)(F)F, which viscosity (x1 = 1) is on record?
The viscosity was 0.44 mPa·s.

Which results are given for `CCCCCCCCn1cc[n+](C)c1.F[B-](F)(F)F` + CCCCOC(C)=O?
viscosity (x2 = 0): 336 mPa·s; viscosity (x2 = 0.1989): 124.4 mPa·s; viscosity (x2 = 0.3002): 74.3 mPa·s; viscosity (x2 = 0.3991): 45.91 mPa·s; viscosity (x2 = 0.502): 27.13 mPa·s; viscosity (x2 = 0.5548): 20.31 mPa·s; viscosity (x2 = 0.6024): 15.79 mPa·s; viscosity (x2 = 0.654): 11.56 mPa·s; viscosity (x2 = 0.7075): 8.27 mPa·s; viscosity (x2 = 0.8007): 4.31 mPa·s; viscosity (x2 = 0.95): 1.14 mPa·s

What does the source list for `CCCCCCCCn1cc[n+](C)c1.F[B-](F)(F)F` + CCCOC(C)=O?
viscosity (x2 = 0): 336 mPa·s; viscosity (x2 = 0.1006): 198.9 mPa·s; viscosity (x2 = 0.197): 121.1 mPa·s; viscosity (x2 = 0.2972): 75.8 mPa·s; viscosity (x2 = 0.4992): 25.67 mPa·s; viscosity (x2 = 0.6013): 14.19 mPa·s; viscosity (x2 = 0.6504): 10.55 mPa·s; viscosity (x2 = 0.7065): 7.48 mPa·s; viscosity (x2 = 0.7992): 3.75 mPa·s; viscosity (x2 = 0.9043): 1.51 mPa·s; viscosity (x2 = 0.9529): 0.91 mPa·s

With `COC(C)=O` + CCCCCCCCn1cc[n+](C)c1.F[B-](F)(F)F as the molecule, how does the viscosity (x1 = 1) read?
The viscosity was 0.39 mPa·s.
